Laboratory results: PMC8078842 (PLoS Neglected Tropical Diseases, 2021)
Several values for one entry are separate records, joined by “and”; a condition that tells them apart may be missing. Equal values may be shown once. Read-outs that look alike come from different tables or passages of the source.

Tests used:
[1] = previously published data; cited from earlier work
[2] = In situ brain/choroid plexus perfusion (10 or 30 minutes) with capillary depletion; settings: for RTISSUE/PLASMA% (mean±SEM) Caudate putamen / RTISSUE/PLASMA% (mean±SEM) Cerebellum / RTISSUE/PLASMA% (mean±SEM) Choroid plexus / RTISSUE/PLASMA% (mean±SEM) Corpus callosum / RTISSUE/PLASMA% (mean±SEM) Frontal cortex / RTISSUE/PLASMA% (mean±SEM) Hippocampus / RTISSUE/PLASMA% (mean±SEM) Homogenate / RTISSUE/PLASMA% (mean±SEM) Hypothalamus / RTISSUE/PLASMA% (mean±SEM) Occipital cortex / RTISSUE/PLASMA% (mean±SEM) Pellet / RTISSUE/PLASMA% (mean±SEM) Pineal gland / RTISSUE/PLASMA% (mean±SEM) Pituitary gland / RTISSUE/PLASMA% (mean±SEM) Pons / RTISSUE/PLASMA% (mean±SEM) Supernatant / RTISSUE/PLASMA% (mean±SEM) Thalamus / RTISSUE/PLASMA% (mean ± SEM) of [^3H]pentamidine: not corrected for vascular space; for RTISSUE/PLASMA% (mean ± SEM) of [^3H]pentamidine: Caudate putamen, 30 min perfusion
[3] = 15.7 nM, 10 minutes perfusion, corrected for vascular space
[4] = 15.7 nM, 10 minutes perfusion, corrected for vascular space, listed as [^3H]pentamidine
[5] = 10 minutes perfusion, listed as Control A [^3H]pentamidine
[6] = 10 minutes perfusion, listed as Control B [^3H]pentamidine

[^3H(G)]pentamidine
Accumulation corrected for vascular space, hippocampus [1]: 4.3% | Accumulation corrected for vascular space, hypothalamus [1]: 7.6% | Accumulation corrected for vascular space, pons [1]: 8.2% | RCORR TISSUE% caudate putamen [2, 3]: 4.02 (± 1.03) % | RCORR TISSUE% cerebellum [2, 3]: 3.82 (± 0.64) % | RCORR TISSUE% choroid plexus [2, 3]: 490.9 (± 103.1) % | RCORR TISSUE% corpus callosum [2, 3]: 6.73 (± 2.65) % | RCORR TISSUE% frontal cortex [2, 3]: 4.29 (± 0.93) % | RCORR TISSUE% hippocampus [2, 3]: 4.37 (± 0.97) % | RCORR TISSUE% homogenate [2, 3]: 4.61 (± 0.94) % | RCORR TISSUE% hypothalamus [2, 3]: 5.56 (± 1.58) % | RCORR TISSUE% occipital cortex [2, 3]: 4.03 (± 0.98) % | RCORR TISSUE% pellet [2, 3]: 12.54 (± 1.74) % | RCORR TISSUE% pineal gland [2, 3]: 284.7 (± 81.4) % | RCORR TISSUE% pons [2, 3]: 7.16 (± 1.75) % | RCORR TISSUE% supernatant [2, 3]: less than 2% | RCORR TISSUE% thalamus [2, 3]: 4.76 (± 0.91) % | RCORR TISSUE% pituitary gland [2, 4]: 182.75(± 29.6) % and 182.75(± 37.5) % | RCORR TISSUE% supernatant [2, 4]: 1.99 (± 0.45) % | RTISSUE/PLASMA% (mean±SEM) Caudate putamen [2, 5]: 4.08 (± 0.84) % | RTISSUE/PLASMA% (mean±SEM) Cerebellum [2, 5]: 5.28 (± 0.56) % | RTISSUE/PLASMA% (mean±SEM) Choroid plexus [2, 5]: 385.74 (± 24.35) % | RTISSUE/PLASMA% (mean±SEM) Corpus callosum [2, 5]: 5.32 (± 1.47) % | RTISSUE/PLASMA% (mean±SEM) Frontal cortex [2, 5]: 4.88 (± 1.18) % | RTISSUE/PLASMA% (mean±SEM) Hippocampus [2, 5]: 3.48 (± 0.94) % | RTISSUE/PLASMA% (mean±SEM) Homogenate [2, 5]: 4.03 (± 0.78) % | RTISSUE/PLASMA% (mean±SEM) Hypothalamus [2, 5]: 5.96 (± 1.23) % | RTISSUE/PLASMA% (mean±SEM) Occipital cortex [2, 5]: 4.56 (±0.87) % | RTISSUE/PLASMA% (mean±SEM) Pellet [2, 5]: 4.11 (± 1.24) % | RTISSUE/PLASMA% (mean±SEM) Pineal gland [2, 5]: 367.59 (± 39.97) % | RTISSUE/PLASMA% (mean±SEM) Pituitary gland [2, 5]: 251.21 (± 66.80) % | RTISSUE/PLASMA% (mean±SEM) Pons [2, 5]: 7.81 (± 0.90) % | RTISSUE/PLASMA% (mean±SEM) Supernatant [2, 5]: 2.54 (± 0.39) % | RTISSUE/PLASMA% (mean±SEM) Thalamus [2, 5]: 4.34 (± 0.83) % | RTISSUE/PLASMA% (mean±SEM) Caudate putamen [2, 6]: 5.40 (± 1.00) % | RTISSUE/PLASMA% (mean±SEM) Cerebellum [2, 6]: 6.54 (± 0.70) % | RTISSUE/PLASMA% (mean±SEM) Choroid plexus [2, 6]: 535.95 (± 107.86) % | RTISSUE/PLASMA% (mean±SEM) Corpus callosum [2, 6]: 9.17 (± 2.67) % | RTISSUE/PLASMA% (mean±SEM) Frontal cortex [2, 6]: 6.23 (± 0.92) % | RTISSUE/PLASMA% (mean±SEM) Hippocampus [2, 6]: 5.60 (± 1.43) % | RTISSUE/PLASMA% (mean±SEM) Homogenate [2, 6]: 6.20 (± 0.97) % | RTISSUE/PLASMA% (mean±SEM) Hypothalamus [2, 6]: 8.14 (± 1.75) % | RTISSUE/PLASMA% (mean±SEM) Occipital cortex [2, 6]: 5.67 (± 0.99) % | RTISSUE/PLASMA% (mean±SEM) Pellet [2, 6]: 13.19 (± 1.79) % | RTISSUE/PLASMA% (mean±SEM) Pineal gland [2, 6]: 361.76 (± 79.03) % | RTISSUE/PLASMA% (mean±SEM) Pituitary gland [2, 6]: 203.27(± 32.85) % | RTISSUE/PLASMA% (mean±SEM) Pons [2, 6]: 10.72 (± 1.82) % | RTISSUE/PLASMA% (mean±SEM) Supernatant [2, 6]: 3.00 (± 0.43) % | RTISSUE/PLASMA% (mean±SEM) Thalamus [2, 6]: 5.95 (± 0.92) % | Accumulation corrected for vascular space, hippocampus ([2]; 30 minutes of perfusion): 6.9% | Accumulation corrected for vascular space, hypothalamus ([2]; 30 minutes of perfusion): 15% | Accumulation corrected for vascular space, pons ([2]; 30 minutes of perfusion): 10.9% | RTISSUE/PLASMA% (mean ± SEM) of [^3H]pentamidine ([2]; 0.01% F68 + 15.7 nM pent): 6.90 (± 1.58) % | RTISSUE/PLASMA% (mean ± SEM) of [^3H]pentamidine ([2]; 0.1% F68 + 15.7 nM pent): 10.41 (± 1.18) % | RTISSUE/PLASMA% (mean ± SEM) of [^3H]pentamidine ([2]; 0.5% F68 + 15.7 nM pent): 13.07 (± 3.45) %
